Source: PMC8910920 (International Journal of Molecular Sciences, 2022)
Converted amounts (≈) assume the structure as drawn.

Experiments:
[1] = Aqueous solubility in simulated gastric fluid; type: physicochemical; conditions: simulated gastric conditions (pH < 5.5)
Description: These studies were subcontracted to Eurofins-CEREP or Eurofins-PANLABS. Briefly, agonists and antagonist assays were performed in cell cultures overexpressing the corresponding channel (CHO: TRPV1 and TRPA1; HEK293: TRPV3 and ASIC3). In vitro pharmacology, cellular channel functional assays: the compound was prepared in assay buffer to the final concentration, 10 μM. The compound wells, reference agonist and background vehicle controls were prepared in DMSO at 0.3%. The reference agonist for each Ion Channel assayed was prepared in a similar manner to serve as the assay control. […] The agonist assay was conducted on fluorimeter instruments where the test compound, vehicle controls, and reference agonist were added to the assay plate after a fluorescence baseline was established. […] For the antagonist assay, the compound was pre-incubated for five minutes at room temperature, and then challenged with the EC80 concentration of the reference agonist after establishment of a fluorescence baseline. […] Binding assay results are expressed as a percent of control specific binding. […] Aqueous solubility (μM) was determined by comparing the peak area of the principal peak in a calibration standard (200 μM) containing organic solvent (methanol/water, 60/40, v/v) with the peak area of the corresponding peak in a buffer sample. […] The amount of compound in organic phase was calculated by subtraction. […]

[2] = tested on: CCI rats, mechanical hypersensitivity; test: CCI model of neuropathic pain, mechanical sensitivity (automatized von Frey test); type: in vivo, rat
Description: The CCI model of neuropathic pain allowed the evaluation of the effect RGM8-51 on cold, heat and mechanical sensitivity, as assayed by the acetone test, the Hargreaves test, and the automatized von Frey test, respectively. RGM8-51 was applied either locally (i.pl.; 10 µg) in the affected paw or systemically (intraperitoneally, i.p., 10 and 30 mg/kg) and the effect evaluated before (Baseline) and after CCI surgery. The nocifensive response after administration of RGM8-51 was compared with that of vehicle, while non-operated animals and the uninjured (contralateral) hind paw in CCI animals were used as controls.
Adult male Sprague-Dawley rats (weighing 200–220 g/6–8 weeks old) were used in these experiments. All experimental procedures were conducted according to the animal welfare guidelines of the European Community (European Directive 2010/63/UE) to minimize animal suffering and were approved by Universidad Complutense de Madrid and Comunidad de Madrid ethical committees on animal experimentation (PROEX 207.8/21). […]
For behavioral testing, rats were placed in individual methacrylate boxes with a wire mesh floor, and after a period of 15 min acclimatization, the cold, heat and mechanical sensitivity of the ipsilateral and contralateral paws was determined. Cold sensitivity was assessed with the acetone test. In total, 100 µL acetone were locally applied to the plantar surface of the hind paw and the duration of the subsequent nocifensive response (licking, brushing, and flinching of the paw) was determined during 60 s. Acetone application and assessment were repeated 2 times with a 5 min interval and the sum of the two values was recorded. Heat sensitivity was determined with the Hargreaves test, which uses infrared light as a heat source, with a Hargreaves apparatus (Serie 8, Model 336, IITC Life Science, Woodland Hills, CA USA). The light beam was directed to the plantar surface of the hind paw and the time from the beginning of irradiation to the appearance of first paw withdrawal movement was measured (paw withdrawal latency). […]

**Q.** What does the source list for `C[C@@H]1C(=O)N(C[C@H](Cc2ccccc2)N(Cc2ccccc2)Cc2ccccc2)[C@]1(Cc1ccccc1)C(=O)OC(C)(C)C` [RGM8-51, 4(S)-Benzyl-3S-methyl-4-(tert-butoxy)carbonyl-1-[(2′S-dibenzylamino-3′-phenyl)prop-1′-yl]-2-oxoazetidine]?
**A.** solubility [1]: 198 µM (≈ 117 µg/mL); mechanical sensitivity in the absence of neuropathy ([2]; baseline, non-operated): could not be observed; mechanical hypersensitivity (paw withdrawal threshold) in CCI rats ([2]; i.p. 10 and 30 mg/kg): dose-dependently reverted paw withdrawal thresholds; mechanical hypersensitivity (paw withdrawal threshold) in CCI rats ([2]; local (i.pl.) 10 µg): effect also being produced
